Reference: PubChem BioAssay AID1259407 (Chemical Carcinogenesis Research Information System (CCRIS), 2018)
The source made the active and inactive calls. No rule for the calls is given here.

System: CCRIS mutagenicity, Ames/micronucleus/aberration tests
Assay: CCRIS mutagenicity studies
[1] = Test System: AMES SALMONELLA TYPHIMURIUM, Strain/Indicator: TA1535, Metabolic Activation: NONE, Method: STANDARD PLATE
[2] = Test System: AMES SALMONELLA TYPHIMURIUM, Strain/Indicator: TA1537, Metabolic Activation: NONE, Method: STANDARD PLATE

SMILES: COc1cccc2c1ccc1c(C(=O)O)cc3c(c12)OCO3
- mutagenic call (Test System: AMES SALMONELLA TYPHIMURIUM, Strain/Indicator: D3052, Metabolic Activation: NONE, Method: STANDARD PLATE): inactive; negative
- mutagenic call (Test System: AMES SALMONELLA TYPHIMURIUM, Strain/Indicator: D3052, Metabolic Activation: RAT, LIVER, S-9, PHENOBARBITAL, Method: STANDARD PLATE): inactive; negative
- mutagenic call (Test System: AMES SALMONELLA TYPHIMURIUM, Strain/Indicator: G46, Metabolic Activation: NONE, Method: STANDARD PLATE): inactive; negative
- mutagenic call (Test System: AMES SALMONELLA TYPHIMURIUM, Strain/Indicator: G46, Metabolic Activation: RAT, LIVER, S-9, PHENOBARBITAL, Method: STANDARD PLATE): inactive; negative
- mutagenic call (Test System: AMES SALMONELLA TYPHIMURIUM, Strain/Indicator: TA98(NR), Metabolic Activation: NONE, Method: STANDARD PLATE): active; positive
- mutagenic call (Test System: AMES SALMONELLA TYPHIMURIUM, Strain/Indicator: TA98, Metabolic Activation: RAT, LIVER, S-9, PHENOBARBITAL, Method: STANDARD PLATE): inactive; negative
- mutagenic call (Test System: AMES SALMONELLA TYPHIMURIUM, Strain/Indicator: TA100(NR), Metabolic Activation: NONE, Method: STANDARD PLATE): active; positive
- mutagenic call (Test System: AMES SALMONELLA TYPHIMURIUM, Strain/Indicator: TA100, Metabolic Activation: RAT, LIVER, S-9, PHENOBARBITAL, Method: STANDARD PLATE): inactive; negative
- mutagenic call (Test System: AMES SALMONELLA TYPHIMURIUM, Strain/Indicator: TA102, Metabolic Activation: NONE, Method: STANDARD PLATE): active; positive
- mutagenic call [1]: inactive; negative
- mutagenic call (Test System: AMES SALMONELLA TYPHIMURIUM, Strain/Indicator: TA1535, Metabolic Activation: RAT, LIVER, S-9, PHENOBARBITAL, Method: STANDARD PLATE): inactive; negative
- mutagenic call (Test System: AMES SALMONELLA TYPHIMURIUM, Strain/Indicator: TA1978, Metabolic Activation: NONE, Method: STANDARD PLATE): inactive; negative
- mutagenic call (Test System: AMES SALMONELLA TYPHIMURIUM, Strain/Indicator: TA1978, Metabolic Activation: RAT, LIVER, S-9, PHENOBARBITAL, Method: STANDARD PLATE): inactive; negative
- mutagenic call (Test System: AMES SALMONELLA TYPHIMURIUM, Strain/Indicator: TM677/8-AZAGUANINE, Metabolic Activation: NONE, Method: SUSPENSION/PLATE): active; positive
- mutagenic call (Test System: AMES SALMONELLA TYPHIMURIUM, Strain/Indicator: YG1021, Metabolic Activation: NONE, Method: STANDARD PLATE): inactive; negative
- mutagenic call (Test System: AMES SALMONELLA TYPHIMURIUM, Strain/Indicator: YG1026, Metabolic Activation: NONE, Method: STANDARD PLATE): inactive; negative
- mutagenic call (Test System: CHINESE HAMSTER OVARY, Strain/Indicator: CHO-K1-BH4 (HGPRT), Metabolic Activation: NONE): active; positive

SMILES: CN(C)CCNC(=O)c1cccc2nc3ccccc3nc12
- mutagenic call [2]: active; positive

SMILES: CCC1CCC(CCC(=O)[O-])C1.CCC1CCC(CCC(=O)[O-])CC1.[Cu+2] (stereo not drawn)
- mutagenic call (End Point: In vitro chromosomal aberrations, Test System: Chinese hamster ovary (CHO) cells, Metabolic Activation: None): inactive; negative
- mutagenic call (End Point: In vitro chromosomal aberrations, Test System: Chinese hamster ovary (CHO) cells, Metabolic Activation: Rat, Liver, S-9, Aroclor): inactive; negative
- mutagenic call (Test System: AMES SALMONELLA TYPHIMURIUM, Strain/Indicator: TA98, Metabolic Activation: HAMSTER, LIVER, S-9, AROCLOR 1254 (10%), Method: STANDARD PLATE): inactive; negative
- mutagenic call (Test System: AMES SALMONELLA TYPHIMURIUM, Strain/Indicator: TA98, Metabolic Activation: NONE, Method: STANDARD PLATE): inactive; negative
- mutagenic call (Test System: AMES SALMONELLA TYPHIMURIUM, Strain/Indicator: TA98, Metabolic Activation: RAT, LIVER, S-9, AROCLOR 1254 (10%), Method: STANDARD PLATE): inactive; negative
- mutagenic call (Test System: AMES SALMONELLA TYPHIMURIUM, Strain/Indicator: TA100, Metabolic Activation: HAMSTER, LIVER, S-9, AROCLOR 1254 (10%), Method: STANDARD PLATE): inactive; negative
- mutagenic call (Test System: AMES SALMONELLA TYPHIMURIUM, Strain/Indicator: TA100, Metabolic Activation: NONE, Method: STANDARD PLATE): inactive; negative
- mutagenic call (Test System: AMES SALMONELLA TYPHIMURIUM, Strain/Indicator: TA100, Metabolic Activation: RAT, LIVER, S-9, AROCLOR 1254 (10%), Method: STANDARD PLATE): inactive; negative
- mutagenic call (Test System: AMES SALMONELLA TYPHIMURIUM, Strain/Indicator: TA1535, Metabolic Activation: HAMSTER, LIVER, S-9, AROCLOR 1254 (10%), Method: STANDARD PLATE): inactive; negative
- mutagenic call [1]: inactive; negative
- mutagenic call (Test System: AMES SALMONELLA TYPHIMURIUM, Strain/Indicator: TA1535, Metabolic Activation: RAT, LIVER, S-9, AROCLOR 1254 (10%), Method: STANDARD PLATE): inactive; negative
- mutagenic call (Test System: AMES SALMONELLA TYPHIMURIUM, Strain/Indicator: TA1537, Metabolic Activation: HAMSTER, LIVER, S-9, AROCLOR 1254 (10%), Method: STANDARD PLATE): inactive; negative
- mutagenic call [2]: inactive; negative
- mutagenic call (Test System: AMES SALMONELLA TYPHIMURIUM, Strain/Indicator: TA1537, Metabolic Activation: RAT, LIVER, S-9, AROCLOR 1254 (10%), Method: STANDARD PLATE): inactive; negative
- mutagenic call (Test System: AMES SALMONELLA TYPHIMURIUM, Strain/Indicator: TA1538, Metabolic Activation: HAMSTER, LIVER, S-9, AROCLOR 1254 (10%), Method: STANDARD PLATE): inactive; negative
- mutagenic call (Test System: AMES SALMONELLA TYPHIMURIUM, Strain/Indicator: TA1538, Metabolic Activation: NONE, Method: STANDARD PLATE): inactive; negative
- mutagenic call (Test System: AMES SALMONELLA TYPHIMURIUM, Strain/Indicator: TA1538, Metabolic Activation: RAT, LIVER, S-9, AROCLOR 1254 (10%), Method: STANDARD PLATE): inactive; negative
- mutagenic call (Test System: MOUSE LYMPHOMA, Strain/Indicator: L5178Y (TK+/TK-), Metabolic Activation: RAT, LIVER, S-9, AROCLOR 1254, Method: SUSPENSION/PLATE): active; positive. reevaluation of results: positive
- mutagenic call (Test System: Mouse lymphoma, Strain/Indicator: L5178Y TK+/-, Metabolic Activation: Mammalian, liver, S-9): active; positive
- mutagenic call (Test System: Mouse lymphoma, Strain/Indicator: L5178Y TK+/-, Metabolic Activation: None): inactive; negative

SMILES: Cn1c(N)nc2ccc3ncccc3c21
- mutagenic call (Test System: AMES SALMONELLA TYPHIMURIUM, Strain/Indicator: TA98, Metabolic Activation: RAT, LIVER, S-9, AROCLOR 1254, Method: PREINCUBATION): active; positive
- mutagenic call (Test System: AMES SALMONELLA TYPHIMURIUM, Strain/Indicator: TA100, Metabolic Activation: RAT, LIVER, S-9, AROCLOR 1254, Method: PREINCUBATION): active; positive

SMILES: Nc1c2c(nc3ccccc13)CCCC2
- mutagenic call (Test System: AMES SALMONELLA TYPHIMURIUM, Strain/Indicator: TA97, Metabolic Activation: HAMSTER LIVER S-9, AROCLOR 1254 (30%), Method: PREINCUBATION): active; positive
- mutagenic call (Test System: AMES SALMONELLA TYPHIMURIUM, Strain/Indicator: TA97, Metabolic Activation: NONE, Method: PREINCUBATION): active; positive
- mutagenic call (Test System: AMES SALMONELLA TYPHIMURIUM, Strain/Indicator: TA97, Metabolic Activation: RAT LIVER S-9, AROCLOR 1254 (30%), Method: PREINCUBATION): active; positive
- mutagenic call (Test System: AMES SALMONELLA TYPHIMURIUM, Strain/Indicator: TA98, Metabolic Activation: HAMSTER LIVER S-9, AROCLOR 1254 (5 OR 10%), Method: PREINCUBATION): inactive; negative
- mutagenic call (Test System: AMES SALMONELLA TYPHIMURIUM, Strain/Indicator: TA98, Metabolic Activation: HAMSTER LIVER S-9, AROCLOR 1254 (30%), Method: PREINCUBATION): active; positive
- mutagenic call (Test System: AMES SALMONELLA TYPHIMURIUM, Strain/Indicator: TA98, Metabolic Activation: NONE, Method: PREINCUBATION): inactive; negative
- mutagenic call (Test System: AMES SALMONELLA TYPHIMURIUM, Strain/Indicator: TA98, Metabolic Activation: RAT LIVER S-9, AROCLOR 1254 (5%), Method: PREINCUBATION): active; positive
- mutagenic call (Test System: AMES SALMONELLA TYPHIMURIUM, Strain/Indicator: TA98, Metabolic Activation: RAT LIVER S-9, AROCLOR 1254 (10%), Method: PREINCUBATION): active; positive
- mutagenic call (Test System: AMES SALMONELLA TYPHIMURIUM, Strain/Indicator: TA98, Metabolic Activation: RAT LIVER S-9, AROCLOR 1254 (30%), Method: PREINCUBATION): inactive; negative
- mutagenic call (Test System: AMES SALMONELLA TYPHIMURIUM, Strain/Indicator: TA100, Metabolic Activation: NONE, Method: PREINCUBATION): inactive; negative
- mutagenic call (Test System: AMES SALMONELLA TYPHIMURIUM, Strain/Indicator: TA100, Metabolic Activation: RAT LIVER S-9, AROCLOR 1254 (30%), Method: PREINCUBATION): inactive; negative
- mutagenic call (Test System: UDS MOUSE HEPATOCYTES, Strain/Indicator: THY INCORP, Metabolic Activation: NONE, Method: AUTORADIOGRAPHY): active; positive
- mutagenic call (Test System: UDS RAT HEPATOCYTES, Strain/Indicator: THY INCORP, Metabolic Activation: NONE, Method: AUTORADIOGRAPHY): active; positive
